The text below walks through data of patent publication US20080021056A1, “Fused, Tricyclic Sulfonamide Inhibitors of Gamma Secretase” (priority 2006, published 2008).

The target in this experiment is T1, gamma-secretase (Homo sapiens, UniProt P49768).
T1 construct: partially purified extract of IMR-32 cell membranes as the gamma-secretase enzyme preparation; endogenous in cells; host or cells: IMR-32 cell membranes (partially purified extract)
The experiment is described as follows: Gamma-secretase APP enzyme assay. The class given is biochemical. The settings on record: cleavage of MBP-C125 Swe substrate at the Aβ40 site, partially purified extract of IMR-32 cell membranes, ELISA. The text has this: The gamma-secretase APP enzyme assay was designed to measure the specific proteolytic cleavage of an APP substrate (MBP-C125 Swe fusion protein) at the Aβ40 site. The assay used a partially purified extract of IMR-32 cell membranes as the gamma-secretase enzyme preparation and a recombinant fusion protein containing the C-terminal 125 amino acids of the Swedish variant of the APP (MBP-C125swe) as the substrate. This assay involved two steps beginning with the enzymatic reaction generating a cleavage product that was captured with an immobilized antibody specific for the neo-epitope Aβ40 site. The captured cleavage product was then detected in a sandwich ELISA assay with a biotinylated reporter antibody that is specific to Aβ (17-28). Streptavidin-linked alkaline phosphatase was then added that would generate a fluorescent signal proportional to the amount of cleavage product. This assay was used to discover small molecule inhibitors of gamma-secretase.
Briefly, a 149 mg/ml solution of BIGCHAP detergent was made with water at 42° C. and then rotated for 30 minutes at the same temperatures This warmed solution of BigCHAPS (N,N-Bis(3-D-gluconamidopropyl)cholamide) detergent was used to dissolve Brain Extract Type-V (lipid containing a minimum of 40% phosphatidylethanolamine) from Signa (St. Louis, Mo.) to a concentration of 8 mg/ml. This solution containing BigCHAPS and lipid at 8 mg/ml is then diluted to 0.53 mg/ml lipid with a pre-warmed solution of Hepes and sodium chloride. This final solution containing Hepes buffer, sodium chloride, BigCHAPS detergent and lipid is used to create working solutions of both gamma-secretase (25 Units) and the MBP-C125 substrate (0.05 mg/ml).
Gamma-secretase was then added to a 96-well micro-titre plate and then incubated with various concentrations of inhibitor for 30 minutes at 37° C. MBPC125 substrate was then added to initiate the reaction that would run for two hours at 37° C. The reaction was quenched with the addition of SDS to a final concentration of 0.1% and then 100 μl of the reaction mixture was transferred to a capture ELISA plate and incubated overnight at 4° C. Detection of the cleavage product was performed using a standard sandwich ELISA assay and quantified using a six point standard curve.

The IC50 is the point on the concentration scale where inhibition reaches its midpoint. Low readings indicate greater potency in that assay, high ones weaker potency in that assay. Take `O=S(=O)(c1ccc(C(F)(F)F)cc1)N1c2cc(F)c(F)cc2-c2[nH]ncc2C1C1CC1` (racemic) [4-cyclopropyl-7,8-difluoro-5-(4-(trifluoromethyl)phenylsulfonyl)-4,5-dihydro-1H-pyrazolo[4,3-c]quinoline]: the IC50 lay in the range of 0.1 to 100 nM.

In turn, `O=S(=O)(c1ccc(C(F)(F)F)cc1)N1c2ccc(F)cc2-c2[nH]ncc2C1C1CC1` (racemic) [4-cyclopropyl-8-fluoro-5-(4-(trifluoromethyl)phenylsulfonyl)-4,5-dihydro-1H-pyrazolo[4,3-c]quinoline] registered an IC50 of 0.1 to 100 nM.

In turn, `CC1c2cn[nH]c2C2CCCCC2N1S(=O)(=O)c1ccc(Cl)cc1` (racemic) [5-(4-chlorophenylsulfonyl)-4-methyl-4,5,5a,6,7,8,9,9a-octahydro-1H-pyrazolo[4,3-c]quinoline] had a 50% inhibitory concentration (IC50) of 0.1 to 100 nM.

For the compound `CC1c2c[nH]nc2-c2ccccc2N1S(=O)(=O)c1ccc(Cl)cc1` (racemic) [5-[(4-chlorophenyl)sulfonyl]-4-methyl-4,5-dihydro-2H-pyrazolo[4,3-c]quinoline], the IC50 was 0.1 to 100 nM.

In turn, `CC1c2c[nH]nc2-c2cc(F)ccc2N1S(=O)(=O)c1ccc(Cl)cc1` (racemic) [5-[(4-chlorophenyl)sulfonyl]-8-fluoro-4-methyl-4,5-dihydro-2H-pyrazolo[4,3-c]quinoline] displayed an IC50 of 0.1 to 100 nM.

In the case of `CC1c2cn[nH]c2-c2cc(F)ccc2N1S(=O)(=O)c1cccnc1` (racemic) [8-fluoro-4-methyl-5-(pyridin-3-ylsulfonyl)-4,5-dihydro-1H-pyrazolo[4,3-c]quinoline], the IC50 was in the range of 101 to 500 nM.

Turning to `O=S(=O)(c1ccc(C(F)(F)F)cc1)N1c2cc(F)c(F)cc2-c2[nH]ncc2C1C1CC1` (single isomer, unassigned) [4-cyclopropyl-7,8-difluoro-5-(4-(trifluoromethyl)phenylsulfonyl)-4,5-dihydro-1H-pyrazolo[4,3-c]quinoline], the IC50 lay in the range of 0.1 to 100 nM.

For the compound `O=S(=O)(c1ccc(F)cc1)N1c2cc(F)c(F)cc2-c2n[nH]cc2C1C1CC1` (single isomer, unassigned) [4-cyclopropyl-7,8-difluoro-5-(4-fluorophenylsulfonyl)-4,5-dihydro-2H-pyrazolo[4,3-c]quinoline], the 50% inhibitory concentration (IC50) lay within 0.1 to 100 nM.

As to `O=S(=O)(c1ccc(C(F)(F)F)nc1)N1c2cc(F)c(F)cc2-c2[nH]ncc2C1C1CC1` (single isomer, unassigned) [4-cyclopropyl-7,8-difluoro-5-(6-(trifluoromethyl)pyridin-3-ylsulfonyl)-4,5-dihydro-1H-pyrazolo[4,3-c]quinoline], the IC50 by setting is: (enantiomer A) 0.1 to 100 nM; (enantiomer B) 0.1 to 100 nM.

Regarding `O=S(=O)(c1ccc(C(F)(F)F)cc1)N1c2ccc(F)cc2-c2[nH]ncc2C1C1CC1` (single isomer, unassigned) [4-cyclopropyl-8-fluoro-5-(4-(trifluoromethyl)phenylsulfonyl)-4,5-dihydro-1H-pyrazolo[4,3-c]quinoline], the IC50 is, setting by setting: (enantiomer A) 0.1 to 100 nM; (enantiomer B) 101 to 500 nM.

`O=S(=O)(c1ccc(C(F)(F)F)cn1)N1c2ccc(F)cc2-c2[nH]ncc2C1C1CC1` (single isomer, unassigned) [4-cyclopropyl-8-fluoro-5-(5-(trifluoromethyl)pyridin-2-ylsulfonyl)-4,5-dihydro-1H-pyrazolo[4,3-c]quinoline] returned an IC50 (enantiomer A) of 101 to 500 nM and a 50% inhibitory concentration (IC50) (enantiomer B) of 0.1 to 100 nM.

For the compound `O=S(=O)(c1ccc(C(F)(F)F)nc1)N1c2ccc(F)cc2-c2n[nH]cc2C1C1CC1` (single isomer, unassigned) [4-cyclopropyl-8-fluoro-5-(6-(trifluoromethyl)pyridin-3-ylsulfonyl)-4,5-dihydro-2H-pyrazolo[4,3-c]quinoline], the IC50 (enantiomer A) was 0.1 to 100 nM and the 50% inhibitory concentration (IC50) (enantiomer B) is 0.1 to 100 nM.

`CC1c2c[nH]nc2-c2ccccc2N1S(=O)(=O)c1ccccn1` (single isomer, unassigned) [4-methyl-5-(pyridin-2-ylsulfonyl)-4,5-dihydro-1H-pyrazolo[4,3-c]quinoline] displayed an IC50 (enantiomer A) of 101 to 500 nM and an IC50 (enantiomer B) of 1000 to 10000 nM.

Regarding `CC1c2cn[nH]c2C2CCCCC2N1S(=O)(=O)c1ccc(Cl)cc1` (single isomer, unassigned) [5-(4-chlorophenylsulfonyl)-4-methyl-4,5,5a,6,7,8,9,9a-octahydro-1H-pyrazolo[4,3-c]quinoline], the IC50 is, setting by setting: (enantiomer A) 101 to 500 nM; (enantiomer B) 0.1 to 100 nM.

`CC1c2cn[nH]c2-c2ccc(O)cc2N1S(=O)(=O)c1ccc(Cl)cc1` (single isomer, unassigned) [5-(4-chlorophenylsulfonyl)-4-methyl-4,5-dihydro-1H-pyrazolo[4,3-c]quinolin-7-ol] displayed a half-inhibitory concentration (IC50) (enantiomer A) of 0.1 to 100 nM and a 50% inhibitory concentration (IC50) (enantiomer B) of 0.1 to 100 nM.

Turning to `CC1c2cn[nH]c2-c2cc(O)c(O)cc2N1S(=O)(=O)c1ccc(Cl)cc1` (single isomer, unassigned) [5-(4-chlorophenylsulfonyl)-4-methyl-4,5-dihydro-1H-pyrazolo[4,3-c]quinoline-7,8-diol], the IC50 (enantiomer A) was 0.1 to 100 nM and the concentration for half-maximal inhibition (IC50) (enantiomer B) fell in the range of 101 to 500 nM.

`CC1c2c[nH]nc2-c2cc(F)c(F)cc2N1S(=O)(=O)c1ccc(Cl)cc1` (single isomer, unassigned) [5-(4-chlorophenylsulfonyl)-7,8-difluoro-4-methyl-4,5-dihydro-2H-pyrazolo[4,3-c]quinoline] yielded an IC50 (enantiomer A) of 0.1 to 100 nM and a half-maximal inhibitory concentration (IC50) (enantiomer B) of 0.1 to 100 nM.

Consider `O=S(=O)(c1ccc(Cl)s1)N1c2cc(F)c(F)cc2-c2n[nH]cc2C1C1CC1` (single isomer, unassigned) [5-(5-chlorothiophen-2-ylsulfonyl)-4-cyclopropyl-7,8-difluoro-4,5-dihydro-2H-pyrazolo[4,3-c]quinoline], for which the IC50 was in the range of 0.1 to 100 nM (enantiomer A) and 0.1 to 100 nM (enantiomer B).

Turning to `CC1c2c[nH]nc2-c2cc(F)ccc2N1S(=O)(=O)c1ccc(Cl)cc1` (single isomer, unassigned) [5-[(4-chlorophenyl)sulfonyl]-8-fluoro-4-methyl-4,5-dihydro-2H-pyrazolo[4,3-c]quinoline], the 50% inhibitory concentration (IC50) was in the range of 0.1 to 100 nM.

Consider `CC1c2cn[nH]c2-c2cc(F)c(F)cc2N1S(=O)(=O)c1ccc(C(F)(F)F)cc1` (single isomer, unassigned) [7,8-difluoro-4-methyl-5-(4-(trifluoromethyl)phenylsulfonyl)-4,5-dihydro-1H-pyrazolo[4,3-c]quinoline], for which the IC50 reads like this: (enantiomer A) 0.1 to 100 nM; (enantiomer B) 101 to 500 nM.

`CC1c2cnc(N)nc2-c2cc(F)ccc2N1S(=O)(=O)c1ccc(F)cc1` (single isomer, unassigned) [9-fluoro-6-(4-fluorophenylsulfonyl)-5-methyl-5,6-dihydropyrimido[5,4-c]quinolin-2-amine] registered a 50% inhibitory concentration (IC50) (enantiomer A) of 1000 to 10000 nM and a concentration for half-maximal inhibition (IC50) (enantiomer B) of 101 to 500 nM.

As for `O=c1c2cnn(S(=O)(=O)c3ccc(Cl)cc3)c2c2ccccc2n1S(=O)(=O)c1ccc(Cl)cc1` [1,5-bis(4-chlorophenylsulfonyl)-1H-pyrazolo[4,3-c]quinolin-4(5H)-one], the IC50 is 1000 to 10000 nM.

On to `Cc1noc(C)c1S(=O)(=O)N1c2ccc(F)cc2-c2[nH]ncc2C1C` (stereo not drawn) [4-(8-fluoro-4-methyl-1H-pyrazolo[4,3-c]quinolin-5(4H)-ylsulfonyl)-3,5-dimethylisoxazole], for which the 50% inhibitory concentration (IC50) was 501 to 1000 nM.

In turn, `O=S(=O)(c1ccc(OC(F)F)cc1)N1c2ccc(F)cc2-c2n[nH]cc2C1C1CC1` (stereo not drawn) [4-cyclopropyl-5-(4-(difluoromethoxy)phenylsulfonyl)-8-fluoro-4,5-dihydro-1H-pyrazolo[4,3-c]quinoline] displayed a half-inhibitory concentration (IC50) of 0.1 to 100 nM.
